Measurements: patent publication US5449674A, “2-,3-,5-, and/or 8-substituted dibenzoxazepine compounds, pharmaceutical compositions and methods for treating pain” (G. D. Searle & Co., priority 1994, dated 1995)
Values after ≈ are worked out from the molar mass of the structure shown. Where a name gives a salt, the structure may show the parent alone. Read-outs that look alike come from different tables or passages of the source.

Key:
water solubility = format: physicochemical; settings: for solubility: water
Method: The title compound was determined to have a high water solubility (>80 mg/mL) by methods known by those of skill in the art.

[1] = test system: phenylbenzoquinone (PBQ)-induced writhing in mice; assay: Writhing Assay (PBQ-induced writhing, analgesic activity in mice); format: in vivo, Charles River male albino mice; settings: for Writhing assay, number of mice out of nine or ten in which the test compound produced analgesia, I.G. / Writhing assay, number of mice out of nine or ten in which the test compound produced analgesia, S.C.: 30 mg/kg, PBQ i.p. 30 min later; for ED50: Mus musculus
Description: The Writhing Assay is one of the most widely-used experimental procedures for measuring the analgesic activity of different narcotic and nonnarcotic analgesic agents, and involves the continuous, chemically-induced pain of visceral origin to an animal, such as a mouse or rat. [Gyires et al., Arch. int. Pharmacodyn, 267, 131-140 (1984); C. Vander Wende et al., Fed. Proc., 15, 494 (1956); Koster et al., Fed. Proc., 18, 412 (1959); and Witken et al., J. Pharmacol. exp. Ther., 133, 400-408 (1961).]Chemicals which may be used to induce this pain include phenylbenzoquinone (PBQ) and acetic acid. As a result of the chemical irritation to the animal, a characteristic stretching and writhing of the animal (dorsiflexion of the animal's back, extension of its hindlimbs and the strong contraction of its abdominal musculature) will generally occur. […] Drugs which reduce the number of writhes of the animal appear to restore the normal nociceptive threshold of the animal.
Charles River male albino mice, weighing 20 to 30 grams, were used in this assay.
Thirty minutes after subcutaneous or intragastric administration to ten mice of 30 mg per kilogram of body weight of a compound of the present invention ("test compound"), […] per 10 g of body weight of a 0.025% w/v solution of PBQ was injected intraperitoneally into each mouse. Ten mice which were given saline in place of a test compound of the invention were used as a control group.
Five minutes later, each mouse was individually placed into a glass beaker for observation, and the number of writhes occurring during the following ten-minute period was counted.
A test compound was considered to have produced analgesia in a mouse if, in accordance with the conditions set forth above, and under the test criteria employed for this assay, after the administration of 30 mg per kilogram of body weight of a compound of the present invention to the mouse, the number of writhes elicited by a mouse injected with PBQ was equal to, or less than, one-half the median number of writhes recorded for the saline-treated control group of mice that day, as described by Taber in "Predictive Value of Analgesic Assays in Mice and Rats," Advances in Biochemical Psychopharmacology, 8, 191 (1974).
The results for the particular compounds of the present invention analyzed in this assay, and discussed in the examples identified below which correspond thereto, are presented in Table I hereinbelow as fractions under the heading "WRITHING ASSAY." The fractions indicate the number of mice, out of ten, in which the test compound produced analgesia.
The standard initial screening dose of a test compound employed in this assay was […] for both routes of administration. If this initial screening dose of the test compound produced analgesia in seven of ten mice, then the effect of additional doses of the test compound on the writhing response was evaluated, and then the ED50 dose was generally calculated. (The slopes of the dose-response curves for all test compounds analyzed were compared as described by Tallarida and Murray, Manual of Pharmacologic Calculations, Page 11 (Springer Verlag, New York, 1981)).

[2] = biological target: T1, prostaglandin E2-induced contractions of segments of guinea pig ileum (Cavia porcellus, UniProt A0A286XHJ6); assay: Prostaglandin (PGE) Antagonism Assay; format: cell-based; settings: isolated ileum, 37° C., read-out: PGE in guinea pig ileum pA2 (converted)
T1 construct: Segments of ileum about 2 cm long were then cut and mounted in a 10 mL tissue bath; from tissue; host or cells: guinea pig ileum segments
T1 sequence (A0A286XHJ6 1-405): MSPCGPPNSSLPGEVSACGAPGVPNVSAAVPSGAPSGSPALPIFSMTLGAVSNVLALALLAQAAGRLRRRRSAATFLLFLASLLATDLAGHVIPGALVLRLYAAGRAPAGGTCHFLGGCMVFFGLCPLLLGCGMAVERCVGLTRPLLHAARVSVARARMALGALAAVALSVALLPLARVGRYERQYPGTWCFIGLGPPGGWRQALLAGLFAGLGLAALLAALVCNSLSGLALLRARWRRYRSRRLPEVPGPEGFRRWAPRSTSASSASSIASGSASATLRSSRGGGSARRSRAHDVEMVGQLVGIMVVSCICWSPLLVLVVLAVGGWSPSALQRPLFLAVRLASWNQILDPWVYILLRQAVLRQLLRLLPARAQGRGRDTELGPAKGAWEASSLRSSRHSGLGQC
Method: In order to determine the effectiveness of several of the compounds of the present invention ("test compounds") as prostaglandin E2 antagonists,a prostaglandin antagonism assay was conducted, as described below, to determine the ability of these compounds to inhibit prostaglandin E2 -induced contractions of segments of guinea pig ileum.
Male albino guinea pigs weighing 200 to 500 grams were sacrificed by cervical dislocation. The ilea were then quickly removed from the guinea pigs and placed in a modified Tyrode solution, a solution which is known to those skilled in the art, containing one-half of the usual amount of magnesium ions.
Segments of ileum about 2 cm long were then cut and mounted in a 10 mL tissue bath containing the modified Tyrode solution. The solution was maintained at 37° C. and aerated with a gaseous mixture of 95% oxygen and 5% carbon dioxide. Data for a control prostaglandin E2 dose response curve plotting concentration of prostaglandin E2 versus the intensity of contractions, detected isotonically, was then obtained by experimentally adjusting the dose of the prostaglandin E2 being injected into the tissue bath, in a manner known by those of skill in the art. […]
A dose ratio of EC50 doses was then calculated from the results of each test in a manner known by those of skill in the art. […]

[3] = test system: prostaglandins, isolated smooth muscle preparations; settings: cited from earlier work
micturition reflex = settings: urethane-anesthetized rats; cited from earlier work

Row | SMILES | Writhing assay, number of mice out of nine or ten in which the test compound produced analgesia, I.G. ([1]; intragastric) | Writhing assay, number of mice out of nine or ten in which the test compound produced analgesia, S.C. ([1]; subcutaneous) | other results
1 | CCS(=O)(=O)CCC(=O)NNC(=O)N1Cc2ccccc2Oc2ccc(Cl)cc21 [8-chlorodibenz[b,f][1,41oxazepine-10(11H)-carboxylic acid, 2-[3(ethylsulfonyl)-1-oxopropyl]hydrazide, reference compound] | – | – | solubility (water solubility; comparison compound): 80 µg/mL (≈ 183 µM)
2 | O=C(O)/C=C\C(=O)N1Cc2ccccc2Oc2ccc(Cl)cc21 [Example 2, 4-(8-chloro-10,11-dihydrodibenz[b,f]-oxazepin-10-yl)-4-oxo-2Z-butenoic acid] | 1/10 | 4/10 | –
3 | CCCCOC(=O)/C=C\C(=O)N1Cc2ccccc2Oc2ccc(Cl)cc21 [Example 3, Butyl 4-(8-chloro-10,1! -dihydrodibenz[b,f]-oxazepin-10-yl)-4-oxo-2Z-butenoate] | 6/10 | 4/10 | –
4 | CCCCOC(=O)/C=C/C(=O)N1Cc2ccccc2Oc2ccc(Cl)cc21 [Example 4, Butyl 4-(8-chloro-10,11-dihydrodibenz[b,f]-oxazepin-10-yl)-4-oxo-2E-butenoate] | 6/10 | 6/10 | –
5 | CCCCNC(=O)/C=C\C(=O)N1Cc2ccccc2Oc2ccc(Cl)cc21 [Example 5] | 4/10 | 6/10 | –
6 | COC(=O)/C=C/C(=O)N1Cc2ccccc2Oc2ccc(Cl)cc21 [Example 7, Methyl 4-(8-chloro-10,11-dihydrodibenz[b,f]-oxazepin-10-yl)-4-oxo-2E-butenoate] | 3/10 | 6/9 | –
7 | CN(C)CCNC(=O)/C=C/C(=O)N1Cc2ccccc2Oc2ccc(Cl)cc21 [Example 8, 4-(8-chloro-10,11-dihydrodibenz[b,f]oxazepin-10-yl) -N-[2-(dimethylamino)ethyl]-4-oxo-2E-butenamide, monohydrochloride] | – | – | ED50 ([1]; po, intragastric, read-out: Writhing assay ED50 Dose, I.G.): 8.3 mg/kg; ED50 ([1]; sc, subcutaneous, read-out: Writhing assay ED50 Dose, S.C.): 8.3 mg/kg; Writhing Assay potency ranking (in words) ([1]; among compounds tested): most potent compound of the invention tested in this assay; Kb [2]: 1860 nM; water solubility (in words) (water solubility): highly water soluble; solubility (water solubility): > 80000 µg/mL
8 | O=C(CCC(=O)N1Cc2ccccc2Oc2ccc(Cl)cc21)NCc1ccncc1 [Example 9, 8-chloro-γ-oxo-N-(4-pyridinylmethyl)dibenz[b,f]-[1,4]oxazepine-10(11)-butanamide] | 6/10 | – | Kb [2]: 2400 nM
9 | CN(C)CCNC(=O)CCC(=O)N1Cc2ccccc2Oc2ccc(Cl)cc21 [Example 10, 8-chloro-N-[2-(dimethylamino)ethyl]-γ-oxodibenz [b,f][1,4]oxazepine-10(11)-butanamide] | 6/9 | – | –
10 | O=C(Cc1ccccc1)NNC(=O)N1Cc2ccccc2Oc2ccc(Cl)cc21 [SC-18637] | – | – | inhibition of stimulant actions of prostaglandins (in words) [3]: inhibit the stimulant actions of prostaglandins on isolated smooth muscle preparations
11 | CC(=O)NNC(=O)N1Cc2ccccc2Oc2ccc(Cl)cc21 [SC-19220] | – | – | bladder capacity (in words) (micturition reflex): increased the bladder capacity; voiding efficiency of micturition (in words) (micturition reflex): reduced the voiding efficiency of micturition; inhibition of stimulant actions of prostaglandins (in words) [3]: inhibit the stimulant actions of prostaglandins on isolated smooth muscle preparations
